Target: T1, recombinant human mPGES-1 (Homo sapiens, UniProt O14684)
T1 construct: made in house; host or cells: Rosetta E. coli (microsomal/membrane fraction)
T1 sequence (O14684 1-152): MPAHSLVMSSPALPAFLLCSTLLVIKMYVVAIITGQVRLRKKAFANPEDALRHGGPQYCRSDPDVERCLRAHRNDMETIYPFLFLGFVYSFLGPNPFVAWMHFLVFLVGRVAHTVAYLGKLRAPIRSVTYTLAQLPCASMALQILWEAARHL
Assay: mPGES-1 inhibition test (microsomes, PGH2 substrate, HTRF detection of PGE2)
Assay type: biochemical
Conditions: inhibition of mPGES-1 at 10 μM
Procedure, shortened: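 PGE2 formed from PGH2 in one minute by E. coli-expressed microsomal enzyme (pH 7.4, 2.5 mM GSH) was measured by competitive HTRF against a synthetic PGE2 standard curve. Compounds were preincubated 25 min at room temperature.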

Compound	inhibition at 10 µM [%]
Cc1ccnc(NC(=O)c2ccc3[nH]c(Nc4c(Cl)cccc4Cl)nc3c2)c1 [Example 116, 2-(2,6-Dichloro-phenylamino)-1H-benzimidazole-5-carboxylic acid (4-methyl-pyridin-2-yl)-amide]	92
NCCCn1c(Nc2c(Cl)cccc2Cl)nc2cc(C(=O)Nc3cc(Cl)ccn3)ccc21 [Example 208, 2-(2,6-Dichloro-phenylamino)-1-(3-amino-propyl)-1H-benzimidazole-5-carboxylic acid (4-chloro-pyridin-2-yl)-amide(trifluoro-acetate)]	100
O=C(Nc1ccc(Br)cc1)c1cc2nc(Nc3c(Cl)cccc3Cl)[nH]c2cc1Cl [Example 53, 2-(2,6-Dichloro-phenylamino)-6-chloro-1H-benzimidazole-5-carboxylic acid (4-bromo-phenyl)-amide]	100
Cc1cc(C(=O)Nc2ccc(Br)cc2)cc2nc(Nc3c(Cl)cccc3Cl)[nH]c12 [Example 51, 2-(2,6-Dichloro-phenylamino)-7-methyl-1H-benzimidazole-5-carboxylic acid (4-bromo-phenyl)-amide]	89
O=C(NC1CCc2ccccc2C1)c1ccc2nc(Nc3c(Cl)cccc3Cl)[nH]c2c1 (centres unmarked) [Example 146, 2-(2,6-Dichloro-phenylamino)-3H-benzimidazole-5-carboxylic acid (1,2,3,4-tetrahydro-naphthalen-2-yl)-amide]	97
Cn1c(Nc2c(Cl)cccc2Cl)nc2cc(C(=O)Nc3cc(Cl)ccn3)c(F)cc21 [Example 129, 2-(2,6-Dichloro-phenylamino)-6-fluoro-1-methyl-1H-benzimidazole-5-carboxylic acid (4-chloro-pyridin-2-yl)-amide]	92
O=C(NCC1CCCOC1)c1ccc2[nH]c(Nc3c(Cl)cccc3Cl)nc2c1 (centres unmarked) [Example 227, 2-(2,6-Dichloro-phenylamino)-1H-benzimidazole-5-carboxylic acid (tetrahydro-pyran-3-ylmethyl)-amide]	77

Continued, values first:

inhibition at 10 µM [%]	Compound
100	Cn1c(Nc2c(Cl)cccc2Cl)nc2cc(C(=O)Nc3ccc(Br)cc3)ccc21 [Example 316, 2-(2,6-Dichloro-phenylamino)-1-methyl-1H-benzimidazole-5-carboxylic acid (4-bromo-phenyl)-amide]
100	O=C(Nc1ccc(Br)cc1)c1cc2nc(Nc3c(Cl)cc(F)cc3Cl)[nH]c2cc1OCCF [Example 585, 2-(2,6-Dichloro-4-fluoro-phenylamino)-N-(4-bromo-phenyl)-6-(2-fluoroethoxy)-1H-benzimidazole-5-carboxamide]
99	Cn1c(Nc2c(Cl)cccc2Cl)nc2cc(C(=O)Nc3cc(C(C)(C)C)ccn3)ccc21 [Example 464, N-(4-tert.-Butylpyridin-2-yl)-2-(2,6-dichlorophenylamino)-1-methyl-1H-benzimidazole-5-carboxamide]
91	Cn1c(Nc2ccc(C(N)=O)cc2Cl)nc2cc(C(=O)Nc3ccc(Br)cc3)ccc21 [Example 543, N-(4-Bromophenyl)-2-(4-carbamoyl-2-chlorophenylamino)-1-methyl-1H-benzimidazole-5-carboxamide]
98	C[C@@H]1CCC(NC(=O)c2cc3nc(Nc4c(F)cccc4Cl)n(C)c3cc2F)C1 (stereo partly drawn) [Example 501, 2-(2-Chloro-6-fluorophenylamino)-6-fluoro-1-methyl-N-((3R)-3-methylcyclopentyl)-1H-benzimidazole-5-carboxamide]
99	COc1cc2[nH]c(Nc3c(Cl)ccc(CC#N)c3Cl)nc2cc1C(=O)Nc1ccc(Br)cc1 [Example 639, 2-(2,6-Dichloro-3-cyanomethyl-phenylamino)-N-(4-bromphenyl)-6-methoxy-1H-benzimidazol-5-carboxamide]
100	COc1cc2c(cc1C(=O)Nc1ccc(Br)cc1)nc(Nc1cc(C(F)(F)F)ccc1C(F)(F)F)n2C [Example 640, 2-(2,5-Di-(trifluoromethyl)-phenylamino)-N-(4-bromphenyl)-6-methoxy-1-methyl-1H-benzimidazol-5-carboxamide]

— patent US8916599B2, “1H-benz imidazole-5-carboxamides as anti-inflammatory agents” (Orexo AB, priority 2008, dated 2014)
